Measurements as given in patent publication US9650395B2, “Antibacterial compounds and methods for use” (PTC Therapeutics, Inc., priority 2011, dated 2017).
≈ marks a conversion by molar mass, not a printed value.

What was measured:
[1] = tested on: super sensitive Gram-negative Escherichia coli (E. coli) BAS849; assay: Antibacterial activity, microbroth dilution MIC, E. coli BAS849; type: cell-based; settings: Escherichia coli; E. coli BAS849, microbroth dilution; read-out: MIC, BAS849
[2] = tested on: control Gram-negative E. coli 25922 strain; assay: Antibacterial activity, microbroth dilution MIC, E. coli 25922; type: cell-based, Escherichia coli; settings: Escherichia coli; E. coli 25922, microbroth dilution; read-out: MIC, 25922
[3] = tested on: Gram-positive Staphylococcus aureus (S. aureus) 29213; assay: Antibacterial activity, microbroth dilution MIC, S. aureus 29213; type: cell-based; settings: Staphylococcus aureus; S. aureus 29213, microbroth dilution; read-out: MIC, 29213
[4] = tested on: quinolone resistant E. coli LZ3111; assay: Antibacterial activity, MIC, quinolone resistant E. coli LZ3111; type: cell-based, Escherichia coli; settings: Escherichia coli, read-out: MIC, LZ3111
Excerpt: (§1) The antibacterial activity from a microbroth dilution method may be presented as the minimum inhibitory concentration (MIC in […]). The MIC value is the lowest concentration of a drug which prevents macroscopically visible bacterial growth under test conditions.
Mutations in these regions are known to confer a high level resistance to the quinolone class of antibiotics.

[5] = tested on: Acinetobacter baumannii (A. baumannii) BAA747; assay: Antibacterial activity, MIC, A. baumannii BAA747; type: cell-based; settings: Acinetobacter baumannii; A. baumannii BAA747; read-out: MIC BAA747
[6] = tested on: Klebsiella pneumoniae (K. pneumoniae) 35657; assay: Antibacterial activity, MIC, K. pneumoniae 35657; type: cell-based; settings: Klebsiella pneumoniae
[7] = tested on: resistant A. baumannii MXX2240 (MDR clinical isolate); assay: Antibacterial activity, MIC, resistant A. baumannii MXX2240; type: cell-based, Acinetobacter baumannii; settings: Acinetobacter baumannii, resistant A. baumannii MMX2240, MDR clinical isolate; read-out: MIC MMX2240
[8] = tested on: resistant K. pneumoniae MXX1232 (MDR clinical isolate); assay: Antibacterial activity, MIC, resistant K. pneumoniae MXX1232; type: cell-based, Klebsiella pneumoniae; settings: Klebsiella pneumoniae; resistant K. pneumoniae MMX1232, MDR clinical isolate; read-out: MIC MMX1232
[9] = tested on: Pseudomonas aeruginosa (P. aeruginosa) 27853; assay: Antibacterial activity, MIC, P. aeruginosa 27853; type: cell-based; settings: Pseudomonas aeruginosa, P. aeruginosa 27853; read-out: MIC 27853
Excerpt: as §1
Antibacterial activity of test compounds against the Gram-negative bacterium Pseudomonas aeruginosa (P. aeruginosa) 27853 is shown in Table 5.

For CCc1cc(C(=O)O)c(=O)[nH]c1-c1ccc(N2CCC(O)(CC)C2)cc1 (stereo not drawn) [Cpd 232, 5-ethyl-6-[4-(3-ethyl-3-hydroxypyrrolidin-1-yl)phenyl]-2-oxo-1,2-dihydropyridine-3-carboxylic acid], the MIC [1] was < 1 µg/mL, the MIC [2] was 1 to 3.5 µg/mL (≈ 2.81 to 9.82 µM) and the MIC [3] was 3.5 to 12.5 µg/mL (≈ 9.82 to 35.1 µM). For the same compound, the MIC [4] was 12.5 to 150 µg/mL (≈ 35.1 to 421 µM), the MIC [5] was 1 to 3.5 µg/mL (≈ 2.81 to 9.82 µM) and the MIC [6] was 1 to 3.5 µg/mL (≈ 2.81 to 9.82 µM). It also gave an MIC [7] of 12.5 to 150 µg/mL (≈ 35.1 to 421 µM), an MIC [8] of 12.5 to 150 µg/mL (≈ 35.1 to 421 µM) and an MIC [9] of 12.5 to 150 µg/mL (≈ 35.1 to 421 µM).

In the case of CCc1c(-c2ccc(N3CCC(c4ccccn4)C3)cc2)[nH]c(=O)c(C(=O)O)c1O (stereo not drawn) [Cpd 286, 5-ethyl-4-hydroxy-2-oxo-6-{4-[3-(pyridin-2-yl)pyrrolidin-1-yl]phenyl}-1,2-dihydropyridine-3-carboxylic acid], the MIC [1] is reported as < 1 µg/mL, the MIC [2] is reported as 1 to 3.5 µg/mL (≈ 2.47 to 8.63 µM) and the MIC [3] is reported as 1 to 3.5 µg/mL (≈ 2.47 to 8.63 µM). For the same compound, the MIC [4] was 12.5 to 150 µg/mL (≈ 30.8 to 370 µM), the MIC [5] was 3.5 to 12.5 µg/mL (≈ 8.63 to 30.8 µM) and the MIC [6] was 12.5 to 150 µg/mL (≈ 30.8 to 370 µM). The MIC [7] was 12.5 to 150 µg/mL (≈ 30.8 to 370 µM), the MIC [8] was 12.5 to 150 µg/mL (≈ 30.8 to 370 µM) and the MIC [9] was 12.5 to 150 µg/mL (≈ 30.8 to 370 µM).

For CCc1c(-c2ccc(N3CCC(O)(CC)C3)cc2)[nH]c(=O)c(C(=O)O)c1O (stereo not drawn) [Cpd 288, 5-ethyl-6-[4-(3-ethyl-3-hydroxypyrrolidin-1-yl)phenyl]-4-hydroxy-2-oxo-1,2-dihydropyridine-3-carboxylic acid], the MIC [1] was < 1 µg/mL, the MIC [2] was 1 to 3.5 µg/mL (≈ 2.69 to 9.4 µM) and the MIC [3] was 1 to 3.5 µg/mL (≈ 2.69 to 9.4 µM). It also gave an MIC [4] of 3.5 to 12.5 µg/mL (≈ 9.4 to 33.6 µM), an MIC [5] of 1 to 3.5 µg/mL (≈ 2.69 to 9.4 µM) and an MIC [6] of 3.5 to 12.5 µg/mL (≈ 9.4 to 33.6 µM). For the same compound, the MIC [7] was 1 to 3.5 µg/mL (≈ 2.69 to 9.4 µM), the MIC [8] was 12.5 to 150 µg/mL (≈ 33.6 to 403 µM) and the MIC [9] was 3.5 to 12.5 µg/mL (≈ 9.4 to 33.6 µM).

In the case of CCc1c(-c2cnc(N(C)C)cn2)[nH]c(=O)c(C(=O)O)c1O [Cpd 312, 6-(5-(dimethylamino)pyrazin-2-yl)-5-ethyl-4-hydroxy-2-oxo-1,2-dihydropyridine-3-carboxylic acid], the MIC [1] is reported as < 1 µg/mL, the MIC [2] is reported as 12.5 to 150 µg/mL (≈ 41.1 to 493 µM) and the MIC [3] is reported as 12.5 to 150 µg/mL (≈ 41.1 to 493 µM). The MIC [4] was 12.5 to 150 µg/mL (≈ 41.1 to 493 µM), the MIC [5] was 3.5 to 12.5 µg/mL (≈ 11.5 to 41.1 µM) and the MIC [6] was 3.5 to 12.5 µg/mL (≈ 11.5 to 41.1 µM). The MIC [7] was 12.5 to 150 µg/mL (≈ 41.1 to 493 µM), the MIC [8] was 12.5 to 150 µg/mL (≈ 41.1 to 493 µM) and the MIC [9] was 12.5 to 150 µg/mL (≈ 41.1 to 493 µM).

CCc1c(-c2cnc(N3CCCC3)cn2)[nH]c(=O)c(C(=O)O)c1O [Cpd 313, 5-ethyl-4-hydroxy-2-oxo-6-(5-(pyrrolidin-1-yl)pyrazin-2-yl)-1,2-dihydropyridine-3-carboxylic acid] was tested, and the MIC [1] was < 1 µg/mL, the MIC [2] was 12.5 to 150 µg/mL (≈ 37.8 to 454 µM) and the MIC [3] was 12.5 to 150 µg/mL (≈ 37.8 to 454 µM). The MIC [4] was 12.5 to 150 µg/mL (≈ 37.8 to 454 µM), the MIC [5] was 3.5 to 12.5 µg/mL (≈ 10.6 to 37.8 µM) and the MIC [6] was 3.5 to 12.5 µg/mL (≈ 10.6 to 37.8 µM). For the same compound, the MIC [7] was 12.5 to 150 µg/mL (≈ 37.8 to 454 µM), the MIC [8] was 12.5 to 150 µg/mL (≈ 37.8 to 454 µM) and the MIC [9] was 12.5 to 150 µg/mL (≈ 37.8 to 454 µM).

With CCc1c(-c2cnc(N3CCC(N(C)C)C3)cn2)[nH]c(=O)c(C(=O)O)c1O (stereo not drawn) [Cpd 314, 6-(5-(3-(dimethylamino)pyrrolidin-1-yl)pyrazin-2-yl)-5-ethyl-4-hydroxy-2-oxo-1,2-dihydropyridine-3-carboxylic acid] the MIC [1] was 3.5 to 12.5 µg/mL (≈ 9.37 to 33.5 µM), the MIC [2] was 12.5 to 150 µg/mL (≈ 33.5 to 402 µM) and the MIC [3] was 12.5 to 150 µg/mL (≈ 33.5 to 402 µM). The MIC [4] was 3.5 to 12.5 µg/mL (≈ 9.37 to 33.5 µM), the MIC [5] was 12.5 to 150 µg/mL (≈ 33.5 to 402 µM) and the MIC [6] was 12.5 to 150 µg/mL (≈ 33.5 to 402 µM). It also gave an MIC [7] of 12.5 to 150 µg/mL (≈ 33.5 to 402 µM), an MIC [8] of 12.5 to 150 µg/mL (≈ 33.5 to 402 µM) and an MIC [9] of 12.5 to 150 µg/mL (≈ 33.5 to 402 µM).

For Cc1c(-c2ccc(N3CCCC3)cn2)[nH]c(=O)c(C(=O)O)c1O [Cpd 315, 4-hydroxy-5-methyl-2-oxo-6-(5-(pyrrolidin-1-yl)pyridin-2-yl)-1,2-dihydropyridine-3-carboxylic acid], the MIC [1] was 1 to 3.5 µg/mL (≈ 3.17 to 11.1 µM), the MIC [2] was 12.5 to 150 µg/mL (≈ 39.6 to 476 µM) and the MIC [3] was 12.5 to 150 µg/mL (≈ 39.6 to 476 µM). The MIC [4] was 12.5 to 150 µg/mL (≈ 39.6 to 476 µM), the MIC [5] was 12.5 to 150 µg/mL (≈ 39.6 to 476 µM) and the MIC [6] was 12.5 to 150 µg/mL (≈ 39.6 to 476 µM). The MIC [7] was 12.5 to 150 µg/mL (≈ 39.6 to 476 µM), the MIC [8] was 12.5 to 150 µg/mL (≈ 39.6 to 476 µM) and the MIC [9] was 12.5 to 150 µg/mL (≈ 39.6 to 476 µM).

Cc1c(-c2ccc(N3CCC(N(C)C)C3)cn2)[nH]c(=O)c(C(=O)O)c1O (stereo not drawn) [Cpd 316, 6-(5-(3-(dimethylamino)pyrrolidin-1-yl)pyridin-2-yl)-4-hydroxy-5-methyl-2-oxo-1,2-dihydropyridine-3-carboxylic acid] showed an MIC [1] of 12.5 to 150 µg/mL (≈ 34.9 to 419 µM), an MIC [2] of 12.5 to 150 µg/mL (≈ 34.9 to 419 µM) and an MIC [3] of 12.5 to 150 µg/mL (≈ 34.9 to 419 µM). The MIC [4] was 12.5 to 150 µg/mL (≈ 34.9 to 419 µM), the MIC [5] was 12.5 to 150 µg/mL (≈ 34.9 to 419 µM) and the MIC [6] was 12.5 to 150 µg/mL (≈ 34.9 to 419 µM). It also gave an MIC [7] of 12.5 to 150 µg/mL (≈ 34.9 to 419 µM), an MIC [8] of 12.5 to 150 µg/mL (≈ 34.9 to 419 µM) and an MIC [9] of 12.5 to 150 µg/mL (≈ 34.9 to 419 µM).

Compound Cc1c(-c2ccc(N3C[C@@H]4[C@@H](N)[C@@H]4C3)cn2)[nH]c(=O)c(C(=O)O)c1O [Cpd 317, 6-(5-((1R,5S,6s)-6-amino-3-azabicyclo[3.1.0]hexan-3-yl)pyridin-2-yl)-4-hydroxy-5-methyl-2-oxo-1,2-dihydropyridine-3-carboxylic acid] has an MIC [1] of 3.5 to 12.5 µg/mL (≈ 10.2 to 36.5 µM), an MIC [2] of 3.5 to 12.5 µg/mL (≈ 10.2 to 36.5 µM) and an MIC [3] of 12.5 to 150 µg/mL (≈ 36.5 to 438 µM). It also gave an MIC [4] of 12.5 to 150 µg/mL (≈ 36.5 to 438 µM), an MIC [5] of 12.5 to 150 µg/mL (≈ 36.5 to 438 µM) and an MIC [6] of 3.5 to 12.5 µg/mL (≈ 10.2 to 36.5 µM). The MIC [7] was 12.5 to 150 µg/mL (≈ 36.5 to 438 µM), the MIC [8] was 12.5 to 150 µg/mL (≈ 36.5 to 438 µM) and the MIC [9] was 12.5 to 150 µg/mL (≈ 36.5 to 438 µM).
